{"source": "patent US20230364029A1", "about": "“POLYMORPHIC FORMS OF (R)-2-HYDROXY-2-METHYL-4-(2,4,5-TRIMETHYL-3,6-DIOXOCYCLOHEXA-1,4-DIENYL)BUTANAMIDE” (PTC THERAPEUTICS, INC., priority 2014, published 2023)", "format_in_all_cases": "physicochemical", "key": {"[1]": {"assay": "Solubility measurement of Pattern A in 17 solvent systems (gravimetric)", "conditions": "for solubility: thermodynamic from solid", "description": "(R)-Trolox was produced from racemic Trolox via methylbenzyl amine double resolution in a manner similar to that described in Example 29 of U.S. Pat. No. 4,026,907. This (R)-Trolox was used to synthesize the (R)-2-hydroxy-2-methyl-4-(2,4,5-trimethyl-3,6-dioxocyclohexa-1,4-dienyl)butanamide starting material. This starting material, designated as Pattern A, was used for the solubility measurement.\nExcess amount of solid was slurried in 17 solvent systems having diverse properties for minimum of 3 days. The slurry was centrifuged and the clear solution was used for gravimetric method. […] Limited solubility was observed from heptane, toluene, MTBE, water and 0.5% Methyl Cellulose in water at ambient and elevated temperatures. Table 9 presents the measured solubility data. A ±10% error is expected."}, "[2]": {"assay": "Grinding experiments", "conditions": "for XRPD after grinding: RT; for Stability of crystal form to grinding: light grinding, dry and with IPA or water", "experimental": "Grinding experiments of the starting material were performed by dry grinding and solvent drop grinding in IPA and water utilizing a mortar and pestle (Table 18)."}, "[3]": {"assay": "7 day elevated aqueous humidity studies", "conditions": "for XRPD [Pattern] 7 day: form after 7 days", "experimental": "7 day elevated aqueous humidity experiments were performed on all Patterns A, B, C, D, E and F at ambient conditions at > 95%RH (Table 17). Approximately 30 mg of each pattern was weighed into a 4 ml glass vial. The uncovered 4 ml vial was inserted into a 20 ml scintillation vial half filled with water and capped. Following 24 hours of equilibration, visual inspection was performed to check for changes in physical appearance, however no change was observed."}, "[4]": {"assay": "Short term slurry experiments (form by XRPD)", "conditions": "slurried in most of 17 solvents, min. 3 days", "experimental": "Short term slurry experiments of the starting material, Pattern A, were performed for a minimum of 3 days in 17 different solvent systems having diverse properties at two different temperatures (25 and 50° C.). A 48 position Chemglass reaction block was used for heating and stirring the slurries which were in 2 mL HPLC vials. After the due time, vials were centrifuged and the wet solids were used for X-ray diffraction."}, "[5]": {"assay": "Moisture sorption analysis", "conditions": "for Hygroscopicity: moisture sorption, 0-95% RH cycles", "experimental": "Moisture sorption analysis of the starting material was performed by equilibrating the sample at 25° C. and 50% RH to simulate ambient lab conditions. Humidity then decreased to 0% RH, increased from 0 to 95% RH, reduced from 95 to 0% RH, increased from 0 to 95 %RH and then decreased from 95 to 50% RH. Each point represents the estimated asymptotic weight for each humidity or weight. […] No hysteresis was observed upon desorption (FIG. 14).\nMoisture sorption analysis of Pattern E (from the 300 mg scale lot) was performed by equilibrating the sample at 25° C. and 50% RH to simulate ambient lab conditions. Humidity was then decreased to 0% RH, increased from 0 to 95% RH, reduced from 95 to 0% RH, increased from 0 to 95 %RH and then decreased from 95 to 50% RH. Each point represents the estimated asymptotic weight for each humidity or weight. […] No hysteresis was observed upon desorption (FIG. 19).\nMoisture sorption analysis of Pattern C (300 mg lot) was performed by equilibrating the sample at 25° C. and 50% RH to simulate ambient lab conditions. Humidity was then decreased to 0% RH, increased from 0 to 95% RH, reduced from 95 to 0% RH, increased from 0 to 95%RH and then decreased from 95 to 50% RH. Each point represents the estimated asymptotic weight for each humidity or weight. […] This increased the total water to about 6% which is the water content of mono-hydrate. However, upon reducing the relative humidity, the solid lost its water. Therefore this could be a channel hydrate. No hysteresis was observed upon desorption (FIG. 24).\nMoisture sorption analysis of Pattern B (300 mg lot) was performed by equilibrating the sample at 25° C. and 50% RH to simulate ambient lab conditions. Humidity then decreased to 0% RH, increased from 0 to 95% RH, reduced from 95 to 0% RH, increased from 0 to 95 %RH and then decreased from 95 to 50% RH. Each point represents the estimated asymptotic weight for each humidity or weight. […] The major weight loss at the beginning was due to loss of solvent.\nMoisture sorption analysis of Pattern F (from Example 6) was performed by equilibrating the sample at 25° C. and 50% RH to simulate ambient lab conditions. Humidity was then decreased to 0% RH, increased from 0 to 95% RH, reduced from 95 to 0% RH, increased from 0 to 95 %RH and then decreased from 95 to 50% RH. Each point represents the estimated asymptotic weight for each humidity or weight. […] The major weight loss at the beginning is due to loss of solvent."}, "[6]": {"assay": "Aqueous solubility (HPLC)", "conditions": "water, thermodynamic from solid, ambient conditions, 24 hours of equilibration", "experimental": "Aqueous solubility of Patterns A, B, C, E and F was performed using an Agilent HPLC system. Approximately 10-20 mg of each form was charged to a 2 mL glass vial loaded with a magnetic stir bar and added 2 mL of water. The samples were allowed to stir overnight at ambient conditions. Following 24 hours of equilibration the samples were centrifuged and decanted into HPLC vials. A calibration curve was generated based on Pattern A in MeOH at 0.05, 0.1, 0.5 and 1.0 mg/mL. Following injection of the standard curve, the samples were run as is."}}}
{"compound": "CC1=C(C)C(=O)C(CC[C@@](C)(O)C(N)=O)=C(C)C1=O", "note": "[Pattern A, (R)-2-hydroxy-2-methyl-4-(2,4,5-trimethyl-3,6-dioxocyclohexa-1,4-dienyl)butanamide]", "values": [{"measurement": "Solubility in a simple detergent", "setting": "[1]; 0.5% MC/2% Tween 80", "result": "increased solubility"}, {"measurement": "solubility", "setting": "[1]; 0.5% methyl cellulose in water, 25 °C, aqueous with cosolvent or surfactant or cyclodextrin, 0.5% MC in Water, part of the concentration relates to solvent constituents", "result": 7, "unit": "mg/mL"}, {"measurement": "solubility", "setting": "[1]; 0.5% methyl cellulose in water, 50 °C, aqueous with cosolvent or surfactant or cyclodextrin, 0.5% MC in Water, part of the concentration relates to solvent constituents", "result": 4, "unit": "mg/mL"}, {"measurement": "solubility", "setting": "[1]; 0.5% methyl cellulose/2% Tween 80, 25 °C, aqueous with cosolvent or surfactant or cyclodextrin, 0.5% MC/2% Tween 80, 25° C., part of the concentration relates to solvent constituents", "result": 26, "unit": "mg/mL"}, {"measurement": "solubility", "setting": "[1]; 0.5% methyl cellulose/2% Tween 80, 50 °C, aqueous with cosolvent or surfactant or cyclodextrin, 0.5% MC/2% Tween 80, 50° C., part of the concentration relates to solvent constituents", "result": 30, "unit": "mg/mL"}, {"measurement": "solubility", "setting": "[1]; 2-MeTHF, 25 °C, organic solvent or mixture, gravimetric", "result": 35, "unit": "mg/mL"}, {"measurement": "solubility", "setting": "[1]; 2-MeTHF, 50 °C, organic solvent or mixture, gravimetric", "result": 59, "unit": "mg/mL"}, {"measurement": "solubility", "setting": "[1]; 4% DMA in PBS, 25 °C, aqueous buffer, part of the concentration relates to solvent constituents", "result": 10, "unit": "mg/mL"}, {"measurement": "solubility", "setting": "[1]; 4% DMA in PBS, 50 °C, aqueous buffer, part of the concentration relates to solvent constituents", "result": 13, "unit": "mg/mL"}, {"measurement": "solubility", "setting": "[1]; EtOAc, 25 °C, organic solvent or mixture, gravimetric", "result": 22, "unit": "mg/mL"}, {"measurement": "solubility", "setting": "[1]; EtOAc, 50 °C, organic solvent or mixture, gravimetric", "result": 38, "unit": "mg/mL"}, {"measurement": "solubility", "setting": "[1]; EtOH, 25 °C, organic solvent or mixture, gravimetric", "result": 40, "unit": "mg/mL"}, {"measurement": "solubility", "setting": "[1]; EtOH, 50 °C, organic solvent or mixture, gravimetric", "result": "> 121", "unit": "mg/mL"}, {"measurement": "Solubility in polar and non-polar solvents", "setting": "[1]; Example 2, summary statement", "result": "soluble in a variety of polar and non-polar solvents"}, {"measurement": "solubility", "setting": "[1]; IPA, 25 °C, organic solvent or mixture, gravimetric", "result": 20, "unit": "mg/mL"}, {"measurement": "solubility", "setting": "[1]; IPA, 50 °C, organic solvent or mixture, gravimetric", "result": 53, "unit": "mg/mL"}, {"measurement": "solubility", "setting": "[1]; IPAc, 25 °C, organic solvent or mixture, gravimetric", "result": 13, "unit": "mg/mL"}, {"measurement": "solubility", "setting": "[1]; IPAc, 50 °C, organic solvent or mixture, gravimetric", "result": 16, "unit": "mg/mL"}, {"measurement": "solubility", "setting": "[1]; MTBE, 25 °C, organic solvent or mixture, gravimetric", "result": 10, "unit": "mg/mL"}, {"measurement": "solubility", "setting": "[1]; MTBE, 50 °C, organic solvent or mixture, gravimetric", "result": 16, "unit": "mg/mL"}, {"measurement": "solubility", "setting": "[1]; MeCN, 25 °C, organic solvent or mixture, gravimetric", "result": 20, "unit": "mg/mL"}, {"measurement": "solubility", "setting": "[1]; MeCN, 50 °C, organic solvent or mixture, gravimetric", "result": 38, "unit": "mg/mL"}, {"measurement": "solubility", "setting": "[1]; MeOH, 25 °C, organic solvent or mixture, gravimetric", "result": "> 101", "unit": "mg/mL"}, {"measurement": "solubility", "setting": "[1]; MeOH, 50 °C, organic solvent or mixture, gravimetric", "result": "> 112", "unit": "mg/mL"}, {"measurement": "solubility", "setting": "[1]; THF, 25 °C, organic solvent or mixture, gravimetric", "result": 28, "unit": "mg/mL"}, {"measurement": "solubility", "setting": "[1]; THF, 50 °C, organic solvent or mixture, gravimetric", "result": 33, "unit": "mg/mL"}, {"measurement": "solubility", "setting": "[1]; acetone, 25 °C, organic solvent or mixture, gravimetric", "result": 39, "unit": "mg/mL"}, {"measurement": "solubility", "setting": "[1]; acetone, 50 °C, organic solvent or mixture, gravimetric", "result": 90, "unit": "mg/mL"}, {"measurement": "solubility", "setting": "[1]; heptane, 25 °C, organic solvent or mixture, slurry min. 3 days, gravimetric", "result": 6, "unit": "mg/mL"}, {"measurement": "solubility", "setting": "[1]; heptane, 50 °C, organic solvent or mixture, slurry min. 3 days, gravimetric", "result": 6, "unit": "mg/mL"}, {"measurement": "solubility", "setting": "[1]; toluene, 25 °C, organic solvent or mixture, gravimetric", "result": 3, "unit": "mg/mL"}, {"measurement": "solubility", "setting": "[1]; toluene, 50 °C, organic solvent or mixture, gravimetric", "result": "< 18", "unit": "mg/mL"}, {"measurement": "solubility", "setting": "[1]; water, 25 °C, ^1Water (second water line), gravimetric", "result": 2, "unit": "mg/mL"}, {"measurement": "solubility", "setting": "[1]; water, 25 °C, gravimetric", "result": 3, "unit": "mg/mL"}, {"measurement": "solubility", "setting": "[1]; water, 50 °C, ^1Water (second water line), gravimetric", "result": 6, "unit": "mg/mL"}, {"measurement": "solubility", "setting": "[1]; water, 50 °C, gravimetric", "result": 3, "unit": "mg/mL"}, {"measurement": "XRPD after grinding", "setting": "[2]; dry grinding, mortar and pestle", "result": "Pattern A"}, {"measurement": "Stability of crystal form to grinding", "setting": "[2]", "result": "no change in the crystal form"}, {"measurement": "Stability of crystal form to grinding", "setting": "[2]; listed as Form I", "result": "stability to grinding"}, {"measurement": "XRPD after grinding", "setting": "[2]; solvent drop grinding, H2O (2 drops)", "result": "Pattern A"}, {"measurement": "XRPD after grinding", "setting": "[2]; solvent drop grinding, IPA (2 drops)", "result": "Pattern A"}, {"measurement": "Visual Observations 1 day", "setting": "[3]; > 95 %RH at Ambient", "result": "Yellow solids"}, {"measurement": "Visual Observations 7 day", "setting": "[3]; > 95 %RH at Ambient", "result": "Yellow Solids"}, {"measurement": "XRPD [Pattern] 7 day", "setting": "[3]; > 95 %RH at Ambient", "result": "no change in form"}, {"measurement": "XRPD [Pattern] 7 day", "setting": "[3]; > 95 %RH at Ambient, listed as A", "result": "Crystalline [Pattern A]"}, {"measurement": "Stability to elevated humidity", "setting": "[3]; Example 8, summary statement", "result": "stability to elevated humidity"}, {"measurement": "Stability of form in short term slurry", "setting": "[4]", "result": "relatively stable"}, {"measurement": "XRPD following moisture sorption analysis", "setting": "[5]; after 0-95% RH cycles at 25° C.", "result": "consistent with the starting material, Pattern A"}, {"measurement": "Water adsorbed", "setting": "[5]; at 90 %RH, 25° C.", "result": 0.1, "unit": "%"}, {"measurement": "Hygroscopicity", "setting": "[5]; 25° C.", "result": "non-hygroscopic"}, {"measurement": "Hygroscopicity", "setting": "[5]; 25° C., listed as Form I", "result": "non-hygroscopic"}, {"measurement": "Hysteresis upon desorption", "setting": "[5]; moisture sorption-desorption, 25° C.", "result": "No hysteresis"}, {"measurement": "solubility at 24 h", "setting": "[6]", "result": 1.74, "unit": "mg/mL"}]}
